Measured values taken from patent US11071744B2, “Prodrug salts” (AEROMICS, INC., priority 2013, dated 2021).
Values after ≈ are worked out from the molar mass of the structure shown. Counter-ions that a name gives are not always drawn. Like-named read-outs stand apart in the source and are kept apart here.

How the values were obtained:
AQP1 = molecular target: T1, AQP1 (Homo sapiens, UniProt P29972); assay: Aquaporin-Mediated Cell Volume Change Assay, CHO cells expressing AQP1; assay type: cell-based; conditions: 10 μM
T1 construct: expressed in transfected cells
T1 sequence (P29972 1-269): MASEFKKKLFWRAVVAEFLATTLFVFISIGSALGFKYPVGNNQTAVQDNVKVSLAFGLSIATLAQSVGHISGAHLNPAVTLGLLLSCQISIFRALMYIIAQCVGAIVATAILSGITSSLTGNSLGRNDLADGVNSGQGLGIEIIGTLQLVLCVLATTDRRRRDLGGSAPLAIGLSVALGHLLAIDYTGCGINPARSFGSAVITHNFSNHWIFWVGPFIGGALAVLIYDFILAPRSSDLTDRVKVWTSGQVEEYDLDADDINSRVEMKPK
Protocol: (§1) Structure activity relationships (SARs) are determined by assaying analogues of selected hits to guide chemistry for the preparation of new molecules to be tested for improved potency. For this iterative process we use a quantitative kinetic assay—the Aquaporin-Mediated Cell Volume Change Assa—in a 96-well multiplate reader. It detects changes in light scattering by a monolayer of CHO cells expressing the desired AQP as they shrink when exposed to hypertonic solution (300 mOsm→530 mOsm). FIG. 1 depicts the aquaporin-mediated cell volume change assay with AQP4 expressing cells (FIG. 1A) and AQP2 expressing cells (FIG. 1B). The cells expressing aquaporins shrink more rapidly than control cells, due to enhanced water flow, which shrinkage can be inhibited by a compound that inhibits the aquaporin.
(§2) The specificity of the compounds is tested against the most closely related of the 13 known aquaporins: AQP1, AQP2, AQP5 and both splice variants of AQP4 (A and B). A stable CHO cell line is created for each of the above aquaporins and the inhibition of water permeability using the Aquaporin-Mediated Cell Volume Change Assay with 10 μM Compound 3 is tested.

AQP4b [1] = assay: Aquaporin-Mediated Cell Volume Change Assay, CHO-AQP4b cells; assay type: cell-based; conditions: 10 μM, AQP4 (both splice variants)
Protocol: as §1
(§3) In FIG. 1, aquaporin-expressing cells are shown in the presence of DMSO (triangles) or in the presence of the test compound (here, Compound 3) at 10 μM (squares), along with CHO-CD81 expressing control cells in the presence of DMSO (diamonds). Each curve represents an average of 16 wells in the 96-well plate.
(§4) In FIG. 1A, when the AQP4b cells treated with DMSO are exposed to hypertonic shock, the cells show rapid shrinking, giving a rise in light scattering (increasing relative change in absorbance, Abs/Abs0) followed by a decay as cells detach from the plate. […]

AQP4b [2] = molecular target: T2, AQP4b (Homo sapiens, UniProt P55087); assay: as above; assay type: cell-based; conditions: read-out: inhibition of rate of shrinking, 10 μM, CHO-AQP4b cells, hypertonic shock
T2 construct: expressed in transfected cells
Protocol: as §1, §3, §4

AQP2 = molecular target: T3, AQP2 (Homo sapiens, UniProt P41181); assay: Aquaporin-Mediated Cell Volume Change Assay, CHO-AQP2 cells; assay type: cell-based; conditions: 10 μM
T3 construct: expressed in transfected cells
T3 sequence (P41181 1-271): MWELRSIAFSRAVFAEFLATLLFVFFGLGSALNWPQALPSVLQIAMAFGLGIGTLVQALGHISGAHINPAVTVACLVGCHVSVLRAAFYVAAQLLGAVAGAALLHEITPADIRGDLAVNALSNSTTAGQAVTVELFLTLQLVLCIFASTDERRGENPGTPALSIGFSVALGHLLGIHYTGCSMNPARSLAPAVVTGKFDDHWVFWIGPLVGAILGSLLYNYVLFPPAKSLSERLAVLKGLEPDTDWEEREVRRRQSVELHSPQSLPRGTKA
Protocol: as §1, §3, §4

AQP5 = molecular target: T4, AQP5 (Homo sapiens, UniProt P55064); assay: Aquaporin-Mediated Cell Volume Change Assay, CHO cells expressing AQP5; assay type: cell-based; conditions: 10 μM
T4 construct: expressed in transfected cells
Protocol: as §1, §2

physchem = conditions: for final pH of solutions: in water
Protocol: (§5) 15 g is dissolved in 1.2 L of water with 120 mM of sodium hydroxide and extracted with 500 ml ethyl acetate to remove phenol and non acid impurities. The aqueous layer is acidified with concentrated HCl to pH 1.2 and extracted with ethyl acetate 1 L followed by 600 ml. […] Ethyl acetate is removed by adding 100 ml of methanol and evaporating. […] Sample kept at RT.

[3] = Protocol: as §5
purified AQP4b = purified AQP4b (Homo sapiens, UniProt P55087); assay: Hummel-Dryer style binding assay with [3H]-Compound 4
Protocol: To support the mechanism of action by which phenylbenzamides directly block AQP4, we perform in vitro binding studies using purified AQP4b and Compound 4 radiolabeled with ^3H. Using a Hummel-Dryer style assay, a gel filtration column is equilibratrated with buffer containing detergent, to maintain solubility of AQP4b, and 1 μM [^3H]-Compound 4. AQP4b is diluted to 250 μM in this column buffer and incubated at RT for 30 min. The sample is then applied to the column, fractions collected and the presence of [^3H]-Compound 4 detected by liquid scintillation counting. […] The rise in [^3H]-Compound 4 from a baseline value of 1 μM represents binding to each of these proteins.

AQP4 = molecular target: T5, AQP4 (Homo sapiens, UniProt P55087); assay: AQP Inhibition Cell-Based Assay (Table 1)
T5 construct: expressed in transfected cells; host or cells: CHO

[4] = tested on: mouse water toxicity model; assay: Mouse water toxicity model, survival curves; conditions: 0.76 mg/kg vs placebo
Protocol: Mouse Water Toxicity Model—Survival Curves: The in vivo efficacies of the compounds are tested using the mouse water toxicity model, where a mouse is injected with water at 20% of its body weight. […] The resulting euvolemic hyponatremia rapidly leads to CE, making this a practical model to test an inhibitor of the CNS aquaporin, AQP4b.
The ability of mice to survive H2O toxicity is determined in three experiments using 10-12 mice each (16-19 weak old male/female). Deionized water is prepared for injection with either 0.39 mg/kg phenylbenzamide (placebo) or 0.76 mg/kg with test compound.

[5] = tested on: mouse water toxicity model; assay: Mouse water toxicity model, brain volume by MRI
Protocol: Mouse Water Toxicity Model—Brain Volume by Magnetic Resonance Imaging (MRI): MRI is used to measure changes in brain volume in response to water shock, using the water toxicity model. As described for the survival and brain water content studies above, mice are injected, IP, with a water bolus alone or water bolus and test compound at 0.76 mg/kg, and changes in brain volume as detected by MRI are monitored. […] High resolution T2-weighted sagittal scans (resolution=0.1 mm×0.1 mm×0.7 mm) of the mouse head are obtained prior to water injection, 5.67 min post water injection, and then every 5.2 minutes until the animal expires from the water loading. Each scan contains twenty-five 0.7 mm contiguous imaging slices of which 14-15 slices contain a portion of the brain. The cross sectional area of the brain in each imaging slice is measured by manual region-of-interest selection using ImageJ. Brain volumes are then calculated for each scan by summing the individual cross sectional brain areas and multiplying by the slice thickness (0.7 mm).
The brain volume by magnetic resonance imaging experiment is also conducted with phenylbenzamide (0.39 mg/kg) and Compound 4 (0.83 mg/kg).

[6] = tested on: mouse middle cerebral artery occlusion (MCAo) model; assay: MCAo stroke model, cerebral edema (hemispheric brain volume by MRI)
Protocol: (§6) To mimic this injury in mice, an intraluminal monofilament model of middle cerebral artery occlusion (MCAo) is used. Occlusion is achieved by inserting a surgical filament into the external carotid artery (ECA) and threading it forward into the internal carotid artery (ICA) until the tip blocks the origin of the MCA. […] This technique is used to study a temporary occlusion in which the MCA is blocked for one hour. The filament is then removed allowing reperfusion to occur for 24 hours before the animals brain is imaged using T2-weighted scans in a 9.4T Bruker MRI scanner at the Case Center for Imaging Research (FIG. 10).
Cerebral Edema—Mice are given saline or treated with Compound 5 by multi-dosing at 5 mg/kg i.p. every three hours (n=8 per treatment). […] Ipsilateral and contralateral hemispheric volume is measured from the T2-weighted MR images of mice 24 hours post-icus. Relative change in hemispheric volume is calculated as a percent of the difference between ipsilateral brain volume (Vi) and contralateral brain volume (Vc) relative to the contralateral brain volume (Percent Change in Hemispheric Brain Volume=((Vi−Vc)/Vc)×100%.

[7] = tested on: mouse middle cerebral artery occlusion (MCAo) model; assay: MCAo stroke model, neurological outcome; assay type: in vivo
Protocol: as §6
Neurological Outcome—In the same experiment as above, animals are scored for neurological outcome on a simple 5 point scale described in Manley, G. T. et al., Aquaporin-4 Deletion in Mice Reduces Brain Edema After Acute Water Intoxication and Ischemic Stroke, Nature Medicine, 6, 159-163 (2000).

[8] = tested on: mouse middle cerebral artery occlusion (MCAo) model; assay: MCAo stroke model, survival; assay type: in vivo; conditions: at 24 h; 2 mg/kg i.p. loading dose plus 1 mg/ml at 8 μl/h pump, vs saline
Protocol: as §6
Survival—Mice are treated with Compound 5 using a 2 mg/kg i.p. loading dose and 1 mg/ml at 8 μl/h maintenance dose (delivered by an i.p. osmotic pump) of Compound 5, or given saline (controls; n=17) using an identical approach.

[9] = mice injected IP
Protocol: Measurements are taken at 15 minutes and 24 hours after a 10 mg/kg i.p. loading dose and 1 mg/ml at 8 μl/h maintenance dose (delivered by an Alzet i.p. osmotic pump, Durect Corp., Cupertino, Calif.) of 2-{[3,5-bis(trifluoromethyl)phenyl]carbamoyl}-4-chlorophenyl phosphate bis ethanolamine salt (n=5 mice/time point, mean±SEM) (FIG. 9). […] Samples are analyzed by tandem LC-MS/MS using C18 reversed-phase chromatography and mass analysis with a triple-quadrapole mass spectrometer.

[10] = Bioconversion of prodrug salt to Compound 1 in mouse plasma in vitro; assay type: in vitro ADME; conditions: 20° C.
[11] = solid state, freeze dried salts

T5 sequence (P55087 23-323, species assumed): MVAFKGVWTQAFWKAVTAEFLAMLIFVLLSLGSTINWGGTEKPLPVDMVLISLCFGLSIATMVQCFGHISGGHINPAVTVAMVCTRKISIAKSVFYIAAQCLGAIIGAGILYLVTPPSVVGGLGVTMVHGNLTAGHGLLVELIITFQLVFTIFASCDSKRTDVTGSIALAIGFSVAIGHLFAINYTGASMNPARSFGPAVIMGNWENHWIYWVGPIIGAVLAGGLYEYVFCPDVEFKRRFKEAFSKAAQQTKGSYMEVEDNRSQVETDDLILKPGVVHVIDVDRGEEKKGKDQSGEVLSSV
T2 sequence (P55087 23-323 limits assumed): as the sequence (P55087 23-323, species assumed) above
purified AQP4b, sequence (P55087 23-323): as the sequence (P55087 23-323, species assumed) above
T4 sequence (P55064 whole entry, species assumed): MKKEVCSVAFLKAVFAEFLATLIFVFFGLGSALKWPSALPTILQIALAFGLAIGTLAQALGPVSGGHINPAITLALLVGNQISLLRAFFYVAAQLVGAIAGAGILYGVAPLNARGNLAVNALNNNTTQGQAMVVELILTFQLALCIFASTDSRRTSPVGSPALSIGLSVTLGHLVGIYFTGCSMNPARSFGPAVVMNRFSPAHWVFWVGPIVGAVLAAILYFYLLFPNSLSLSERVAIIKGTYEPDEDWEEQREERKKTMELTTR

## O=C(Nc1cc(Cl)cc(Cl)c1)c1cc(Cl)ccc1O [Compound 3, 5-chloro-N-(3,5-dichlorophenyl)-2-hydroxybenzamide]
AQP1
  inhibition of water permeability: poorly inhibits
AQP4b [1]
  inhibition of water permeability: inhibits
AQP4b [2]
  inhibition at 10 µM: 55%
AQP2
  inhibition of water permeability: inhibits
AQP5
  inhibition of water permeability: poorly inhibits

## O=C(Nc1cc(C(F)(F)F)cc(C(F)(F)F)c1)c1cc(Cl)ccc1OP(=O)([O-])O.[Na+] [mono sodium salt]
physchem
  final pH of solutions: ~8.5
physchem; water
  solubility: ~5000 µg/mL
[3]; [11]
  hydrolysis in the solid state: about 1 % per day
[3]; solution, RT, longer term
  longer term hydrolysis in solution: about 1 % per day

## O=C(Nc1cc(C(F)(F)F)cc(C(F)(F)F)c1)c1cc(C(F)(F)F)ccc1O [Compound 4, N-(3,5-bis(trifluoromethyl)phenyl)-2-hydroxy-5-(trifluoromethyl)benzamide]
Purified AQP4b
  binding to solubilized AQP4b: relatively weak binding
AQP4
  AQP Inhibition Cell-Based Assay (%): 38.9%

## O=C(Nc1ccccc1)c1ccccc1 [Phenylbenzamide, reference compound]
AQP4
  AQP Inhibition Cell-Based Assay (%): 4.5%

## O=C(Nc1cc(C(F)(F)F)cc(C(F)(F)F)c1)c1cc(Cl)ccc1O [Compound 1, N-(3,5-bis(trifluoromethyl)phenyl)-5-chloro-2-hydroxybenzamide]
[4]
  improvement of percent survival: 3.2 fold
  improvement of time to 50% survival: roughly 52 min
physchem; water
  solubility in water: 3.8 µg/mL (≈ 0.0099 mM)
[5]; 0.76 mg/kg
  extent of CE during the period of observation: reduced
[5]; 0.76 mg/kg, from 0.081 to 0.032 min^−1
  reduction of rate of CE development: 2.5 fold
[5]; mouse water toxicity model, 0.76 mg/kg IP, LC-MS/MS
  plasma levels: 0.03 to 0.06 µg

## O=C(Nc1cc(C(F)(F)F)cc(C(F)(F)F)c1)c1cc(Cl)ccc1OP(=O)([O-])[O-].[Na+].[Na+] [Compound 5]
physchem
  solubility in water: 1000 µg/mL
  final pH of solutions: ~9.5
physchem; water
  solubility: ~10000 µg/mL
[6]; 24 hours after MCAo, 5 mg/kg i.p. every three hours, ±SEM, control 13.4%
  relative change in ipsilateral hemispheric brain volume: 4.2±1.7%
[6]; vs saline control
  reduction in brain swelling after MCAo: 3.2 fold
[7]; 5 point scale, control 2.77±0.66
  average neurological score: 0.88±0.31
[7]; mouse, in vivo
  progression of neurological state: did not progress into a state of severe paralysis or death
[8]
  improvement in overall survival: 29.4%
[3]; [11]
  hydrolysis in the solid state: about 1 % per day
[3]; solution, RT, longer term
  longer term hydrolysis in solution: about 1 % per day

## O=C(Nc1cc(C(F)(F)F)cc(C(F)(F)F)c1)c1cc(Cl)ccc1OP(=O)(O)O
physchem; pH 7, aqueous buffer
  solubility: 5000 µg/mL (≈ 10.8 mM)
[3]
  stability at RT: stable at RT for a week or more

## NCCO.O=C(Nc1cc(C(F)(F)F)cc(C(F)(F)F)c1)c1cc(Cl)ccc1OP(=O)(O)O [mono ethanolamine salt]
physchem; water
  solubility: ~5000 µg/mL
[3]; after 5 days at RT
  hydrolysis: about 1%

## O=C(Nc1cc(C(F)(F)F)cc(C(F)(F)F)c1)c1cc(Cl)ccc1OP(=O)(O)O [bis ethanolamine salt]
physchem; water
  solubility: ~10000 µg/mL
[9]
  bioavailability and conversion to Compound 1: good bioavailability and near-complete conversion
  prodrug salt in plasma samples: undetectable
[10]
  time to render prodrug undetectable: Less than 5 minutes
[3]
  hydrolysis in the solid state: about 1 % per day
  longer term hydrolysis in solution: about 1 % per day
